Data reported in the kinase profiling compilation of Christmann-Franck et al. (2016).

How the values were obtained:
Conditions in all cases: compound 10.0 µM
AKT2 (human) = AKT2 (human) (UniProt P31751)
BMX (human) = BMX (human) (UniProt P51813)
CAMK2A (human) = CAMK2A (human) (UniProt Q9UQM7)
CAMK2D (human) = CAMK2D (human) (UniProt Q13557)
CAMK2G (human) = CAMK2G (human) (UniProt Q13555)
CAMKK1 (human) = CAMKK1 (human) (UniProt Q8N5S9)
CDK6 CCND3 (human) = CDK6 CCND3 (human) (UniProt Q00534+P30281)
CDK9 CCNK (human) = CDK9 CCNK (human) (UniProt P50750+O75909)
CLK2 (human) = CLK2 (human) (UniProt P49760)
CSF1R (human) = CSF1R (human) (UniProt P07333)
CSK (human) = CSK (human) (UniProt P41240)
CSNK1G2 (human) = CSNK1G2 (human) (UniProt P78368)
DCLK2 (human) = DCLK2 (human) (UniProt Q8N568)
EPHA1 (human) = EPHA1 (human) (UniProt P21709)
EPHA2 (human) = EPHA2 (human) (UniProt P29317)
EPHB2 (human) = EPHB2 (human) (UniProt P29323)
FES (human) = FES (human) (UniProt P07332)
FGR (human) = FGR (human) (UniProt P09769)
GRK4 (human) = GRK4 (human) (UniProt P32298)
GRK5 (human) = GRK5 (human) (UniProt P34947)
GRK6 (human) = GRK6 (human) (UniProt P43250)
JAK2 JH1 JH2 (human) = JAK2 JH1 JH2 (human) (UniProt O60674)
LRRK2 (human) = LRRK2 (human) (UniProt Q5S007)
LYN (human) = LYN (human) (UniProt P07948)
[1] = tested on: LYN (human), P07948 [23-43 del]
MAPK12 (human) = MAPK12 (human) (UniProt P53778)
MAPK13 (human) = MAPK13 (human) (UniProt O15264)
MAPK3 (human) = MAPK3 (human) (UniProt P27361)
MARK4 (human) = MARK4 (human) (UniProt Q96L34)
MYO3B (human) = MYO3B (human) (UniProt Q8WXR4)
NEK11 (human) = NEK11 (human) (UniProt Q8NG66)
PDGFRB (human) = PDGFRB (human) (UniProt P09619)
PDPK1 (human) = PDPK1 (human) (UniProt O15530)
PIM1 (human) = PIM1 (human) (UniProt P11309)
PRKCG (human) = PRKCG (human) (UniProt P05129)
ROCK1 (human) = ROCK1 (human) (UniProt Q13464)
RPS6KA2 KD1 KD2 (human) = RPS6KA2 KD1 KD2 (human) (UniProt Q15349)
RPS6KA3 KD1 KD2 (human) = RPS6KA3 KD1 KD2 (human) (UniProt P51812)
RPS6KB1 (human) = RPS6KB1 (human) (UniProt P23443)
SRPK3 (human) = SRPK3 (human) (UniProt Q9UPE1)
SYK (human) = SYK (human) (UniProt P43405)
TAOK3 (human) = TAOK3 (human) (UniProt Q9H2K8)
TGFBR1 (human) = TGFBR1 (human) (UniProt P36897)
ULK1 (human) = ULK1 (human) (UniProt O75385)

Sequence of EPHA1 (human) (P21709 whole entry, looked up): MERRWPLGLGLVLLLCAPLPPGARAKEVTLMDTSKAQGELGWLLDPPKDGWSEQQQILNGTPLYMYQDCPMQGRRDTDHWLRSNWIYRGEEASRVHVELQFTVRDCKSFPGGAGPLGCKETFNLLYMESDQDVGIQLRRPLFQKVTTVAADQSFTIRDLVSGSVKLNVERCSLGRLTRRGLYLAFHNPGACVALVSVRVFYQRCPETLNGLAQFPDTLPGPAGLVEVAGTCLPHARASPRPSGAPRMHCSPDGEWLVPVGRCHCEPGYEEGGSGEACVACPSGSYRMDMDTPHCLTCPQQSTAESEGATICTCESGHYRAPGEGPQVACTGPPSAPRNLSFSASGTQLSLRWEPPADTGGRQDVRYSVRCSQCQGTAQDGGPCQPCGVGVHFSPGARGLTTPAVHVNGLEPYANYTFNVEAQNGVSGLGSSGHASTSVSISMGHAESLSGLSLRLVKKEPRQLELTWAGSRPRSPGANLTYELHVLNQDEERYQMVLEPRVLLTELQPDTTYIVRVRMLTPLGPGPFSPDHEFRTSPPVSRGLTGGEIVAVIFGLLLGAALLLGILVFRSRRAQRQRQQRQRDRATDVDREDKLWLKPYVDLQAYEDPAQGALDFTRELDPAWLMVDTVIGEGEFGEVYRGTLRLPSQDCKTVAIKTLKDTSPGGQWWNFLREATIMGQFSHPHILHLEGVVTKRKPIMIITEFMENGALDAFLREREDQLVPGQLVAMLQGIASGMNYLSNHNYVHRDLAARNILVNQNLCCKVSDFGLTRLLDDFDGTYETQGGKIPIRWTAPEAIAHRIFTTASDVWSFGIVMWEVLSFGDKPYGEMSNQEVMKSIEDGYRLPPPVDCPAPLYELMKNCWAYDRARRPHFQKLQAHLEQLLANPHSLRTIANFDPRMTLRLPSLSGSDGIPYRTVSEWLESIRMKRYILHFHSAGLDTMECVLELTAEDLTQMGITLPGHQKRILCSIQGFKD
Sequence of TAOK3 (human) (Q9H2K8 whole entry, looked up): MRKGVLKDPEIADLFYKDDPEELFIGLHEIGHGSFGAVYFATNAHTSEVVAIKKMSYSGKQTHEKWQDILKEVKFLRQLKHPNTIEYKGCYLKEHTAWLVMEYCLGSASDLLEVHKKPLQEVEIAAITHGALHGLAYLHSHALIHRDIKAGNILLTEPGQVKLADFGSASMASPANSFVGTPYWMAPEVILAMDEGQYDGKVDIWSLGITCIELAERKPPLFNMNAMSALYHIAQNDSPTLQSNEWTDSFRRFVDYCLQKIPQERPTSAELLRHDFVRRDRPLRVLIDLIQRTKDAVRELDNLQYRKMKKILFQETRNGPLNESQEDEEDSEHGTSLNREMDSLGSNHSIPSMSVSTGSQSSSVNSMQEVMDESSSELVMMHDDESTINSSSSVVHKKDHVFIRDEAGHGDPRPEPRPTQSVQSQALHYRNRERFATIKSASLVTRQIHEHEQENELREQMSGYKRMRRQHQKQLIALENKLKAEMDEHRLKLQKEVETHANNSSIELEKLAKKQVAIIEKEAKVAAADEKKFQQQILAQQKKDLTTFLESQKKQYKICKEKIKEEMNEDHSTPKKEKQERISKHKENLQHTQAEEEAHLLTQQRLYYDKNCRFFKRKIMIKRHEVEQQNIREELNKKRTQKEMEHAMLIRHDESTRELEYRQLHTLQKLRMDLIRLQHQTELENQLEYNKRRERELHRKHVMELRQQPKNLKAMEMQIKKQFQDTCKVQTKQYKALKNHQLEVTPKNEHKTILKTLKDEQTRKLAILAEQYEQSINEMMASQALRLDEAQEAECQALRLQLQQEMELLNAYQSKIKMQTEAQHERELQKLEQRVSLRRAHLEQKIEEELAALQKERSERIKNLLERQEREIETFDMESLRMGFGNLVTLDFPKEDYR
Sequence of FES (human) (P07332 whole entry, looked up): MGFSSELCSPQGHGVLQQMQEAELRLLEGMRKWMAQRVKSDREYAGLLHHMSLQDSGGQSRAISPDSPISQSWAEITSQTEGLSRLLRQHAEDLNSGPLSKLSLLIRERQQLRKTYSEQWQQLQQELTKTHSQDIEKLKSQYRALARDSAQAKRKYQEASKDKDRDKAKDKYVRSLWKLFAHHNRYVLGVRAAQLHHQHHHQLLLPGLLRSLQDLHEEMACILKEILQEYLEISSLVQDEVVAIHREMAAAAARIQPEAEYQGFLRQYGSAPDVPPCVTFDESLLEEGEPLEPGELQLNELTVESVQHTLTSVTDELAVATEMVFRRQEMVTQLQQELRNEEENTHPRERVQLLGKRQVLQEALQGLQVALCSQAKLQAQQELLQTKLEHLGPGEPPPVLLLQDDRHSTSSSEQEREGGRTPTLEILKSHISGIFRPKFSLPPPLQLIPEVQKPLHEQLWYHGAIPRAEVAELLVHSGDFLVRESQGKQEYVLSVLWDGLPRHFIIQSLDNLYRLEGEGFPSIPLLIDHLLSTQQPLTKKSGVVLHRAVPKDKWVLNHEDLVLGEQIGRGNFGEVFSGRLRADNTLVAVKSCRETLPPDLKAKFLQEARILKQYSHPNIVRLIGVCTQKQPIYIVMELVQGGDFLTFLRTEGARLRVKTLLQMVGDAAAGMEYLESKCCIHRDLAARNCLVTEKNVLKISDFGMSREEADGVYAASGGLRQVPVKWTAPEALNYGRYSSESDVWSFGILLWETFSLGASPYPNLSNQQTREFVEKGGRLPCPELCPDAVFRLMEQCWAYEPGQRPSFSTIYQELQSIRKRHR
Sequence of DCLK2 (human) (Q8N568 whole entry, looked up): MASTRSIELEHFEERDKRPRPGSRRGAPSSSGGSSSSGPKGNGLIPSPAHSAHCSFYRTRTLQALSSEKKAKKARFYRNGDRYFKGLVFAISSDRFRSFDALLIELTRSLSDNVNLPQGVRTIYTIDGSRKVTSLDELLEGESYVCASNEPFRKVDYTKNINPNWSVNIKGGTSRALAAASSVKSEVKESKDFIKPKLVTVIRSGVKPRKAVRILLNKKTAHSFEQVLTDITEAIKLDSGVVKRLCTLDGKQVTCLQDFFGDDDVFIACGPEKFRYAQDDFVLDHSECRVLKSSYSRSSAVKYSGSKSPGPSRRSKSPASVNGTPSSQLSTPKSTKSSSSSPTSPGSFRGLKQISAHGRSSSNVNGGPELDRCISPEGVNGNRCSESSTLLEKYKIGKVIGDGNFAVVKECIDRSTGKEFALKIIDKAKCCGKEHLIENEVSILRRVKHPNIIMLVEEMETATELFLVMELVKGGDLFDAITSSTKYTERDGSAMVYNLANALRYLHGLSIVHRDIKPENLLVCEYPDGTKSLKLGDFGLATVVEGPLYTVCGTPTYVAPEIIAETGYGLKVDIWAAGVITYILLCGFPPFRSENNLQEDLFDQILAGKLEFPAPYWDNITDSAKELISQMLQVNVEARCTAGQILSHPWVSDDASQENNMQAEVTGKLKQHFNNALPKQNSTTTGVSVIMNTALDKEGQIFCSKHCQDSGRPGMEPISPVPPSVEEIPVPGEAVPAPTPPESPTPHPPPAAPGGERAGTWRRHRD
Sequence of PIM1 (human) (P11309 whole entry, looked up): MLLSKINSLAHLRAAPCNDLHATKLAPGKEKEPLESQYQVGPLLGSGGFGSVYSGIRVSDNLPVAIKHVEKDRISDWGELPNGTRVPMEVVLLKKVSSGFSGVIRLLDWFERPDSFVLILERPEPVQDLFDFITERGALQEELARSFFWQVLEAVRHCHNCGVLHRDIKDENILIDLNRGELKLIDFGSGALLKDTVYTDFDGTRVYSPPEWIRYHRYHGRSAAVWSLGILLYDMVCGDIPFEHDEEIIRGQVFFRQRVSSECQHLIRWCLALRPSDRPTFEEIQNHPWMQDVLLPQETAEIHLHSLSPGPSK
Sequence of PDGFRB (human) (P09619 whole entry, looked up): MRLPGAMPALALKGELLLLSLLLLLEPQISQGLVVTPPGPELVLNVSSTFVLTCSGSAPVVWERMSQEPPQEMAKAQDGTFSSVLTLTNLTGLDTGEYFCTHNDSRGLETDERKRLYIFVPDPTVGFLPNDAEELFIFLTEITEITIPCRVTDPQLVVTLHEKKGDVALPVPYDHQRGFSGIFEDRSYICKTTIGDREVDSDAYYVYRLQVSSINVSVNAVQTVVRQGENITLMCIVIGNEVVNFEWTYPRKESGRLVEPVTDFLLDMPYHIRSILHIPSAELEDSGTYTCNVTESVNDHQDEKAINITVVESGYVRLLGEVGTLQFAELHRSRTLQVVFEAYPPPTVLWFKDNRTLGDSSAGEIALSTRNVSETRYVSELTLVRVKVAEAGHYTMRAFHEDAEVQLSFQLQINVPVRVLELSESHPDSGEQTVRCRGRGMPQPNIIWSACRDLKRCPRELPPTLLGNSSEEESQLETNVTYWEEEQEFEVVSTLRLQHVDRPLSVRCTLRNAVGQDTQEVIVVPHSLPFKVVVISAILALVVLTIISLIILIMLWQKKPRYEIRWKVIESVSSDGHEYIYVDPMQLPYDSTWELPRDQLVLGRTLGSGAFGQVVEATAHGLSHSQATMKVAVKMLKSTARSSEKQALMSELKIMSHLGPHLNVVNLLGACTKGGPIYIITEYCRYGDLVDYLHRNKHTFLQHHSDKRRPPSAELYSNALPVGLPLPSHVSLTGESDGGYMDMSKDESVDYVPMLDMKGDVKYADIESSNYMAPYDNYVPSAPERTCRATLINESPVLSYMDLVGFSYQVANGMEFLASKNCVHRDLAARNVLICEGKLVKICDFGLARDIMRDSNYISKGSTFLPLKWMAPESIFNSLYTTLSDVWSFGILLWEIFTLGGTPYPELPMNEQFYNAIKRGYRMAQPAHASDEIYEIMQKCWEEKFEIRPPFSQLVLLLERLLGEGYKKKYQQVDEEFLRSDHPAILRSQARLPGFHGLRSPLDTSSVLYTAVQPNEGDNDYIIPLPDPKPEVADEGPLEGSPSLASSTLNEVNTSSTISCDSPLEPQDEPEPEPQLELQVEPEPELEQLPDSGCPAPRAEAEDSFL

CC[C@H](C)n1cc(C)c2c(C(=O)NCc3c(C)cc(C)[nH]c3=O)cc(-c3ccc(N4CCNCC4)nc3)cc21
residual activity (AKT2 (human)): 93.5%
residual activity (BMX (human)): 102%
residual activity (CAMK2A (human)): 104%
residual activity (CAMK2D (human)): 100%
residual activity (CAMK2G (human)): 99.5%
residual activity (CAMKK1 (human)): 96%
residual activity (CDK6 CCND3 (human)): 102%
residual activity (CDK9 CCNK (human)): 96.5%
residual activity (CLK2 (human)): 89.5%
residual activity (CSF1R (human)): 95%
residual activity (CSK (human)): 89.5%
residual activity (CSNK1G2 (human)): 90.5%
residual activity (DCLK2 (human)): 104%
residual activity (EPHA1 (human)): 104%
residual activity (EPHA2 (human)): 106%
residual activity (EPHB2 (human)): 95.5%
residual activity (FES (human)): 99%
residual activity (FGR (human)): 91%
residual activity (GRK4 (human)): 98%
residual activity (GRK5 (human)): 101%
residual activity (GRK6 (human)): 104%
residual activity (JAK2 JH1 JH2 (human)): 91.5%
residual activity (LRRK2 (human)): 99%
residual activity (LYN (human)): 104%
residual activity [1]: 92%
residual activity (MAPK12 (human)): 97.5%
residual activity (MAPK13 (human)): 95%
residual activity (MAPK3 (human)): 99%
residual activity (MARK4 (human)): 83%
residual activity (MYO3B (human)): 92%
residual activity (NEK11 (human)): 107%
residual activity (PDGFRB (human)): 102%
residual activity (PDPK1 (human)): 100%
residual activity (PIM1 (human)): 102%
residual activity (PRKCG (human)): 91.5%
residual activity (ROCK1 (human)): 96%
residual activity (RPS6KA2 KD1 KD2 (human)): 92%
residual activity (RPS6KA3 KD1 KD2 (human)): 90.5%
residual activity (RPS6KB1 (human)): 97%
residual activity (SRPK3 (human)): 98%
residual activity (SYK (human)): 89%
residual activity (TAOK3 (human)): 101%
residual activity (TGFBR1 (human)): 100%
residual activity (ULK1 (human)): 98%
